{
  "source": "patent US20160083424A1",
  "about": "“COMPOSITIONS AND METHODS FOR TARGETING ANTIGEN-PRESENTING CELLS” (OSLO UNIVERSITETSSYKEHUS HF, priority 2013, published 2016)",
  "key": {"[1]": {"test_system": "pp65-specific naïve T cells", "assay": "Induction of CMV-pp65-specific T cells from naive donor repertoire, dextramer staining", "type": "cell-based, human", "settings": "CD45RO-depleted PBMCs, HLA-A2+/CMV negative donors, IL-7, representative example", "description": "PBMC from HLA-A2/CMV+ donors were thawed, washed and then incubated with the peptides (5 μg/ml) for 60 min at 4° C. Subsequently, the cells were washed twice and then plated at 2×10^5 cells per well in 96-well tissue culture plate. Cells were cultured for 5 days and subsequently they were pulsed with [^3H] thymidine and harvested 16 h later. In some experiments, the cells were cultured for 12 days and then stained with dextramers specific for pp65 NLVPMVATV (SEQ ID NO:19) epitope. Monocyte-depleted PBMCs were also used. To analyze primary immune responses against pp65 protein, PBMCs from HLA-A2+/CMV-negative donors were used. Autologous DCs were incubated with either NW-pp65 or GA-pp65 peptide (5 μg/ml) at 4° C. for 1 h, followed by three washes to remove unbound peptides. Subsequently, the cells were incubated with CD45RO-depleted PBMC (responder cells) and co-cultured for 10 days at ratio 1/10 (DC to responder cells) in X-vivo 15 medium supplemented with 10 ng/ml human IL-7 for 10 days. […]\nDextramers with CMV (NLVPMVATV) (SEQ ID NO:19) and HIV (ILKEPVHGV) (SEQ ID NO:22) HLA-A2 specific antigens were obtained from Immudex (Copenhagen, Denmark). […] Cells were washed and resuspended in SB containing 1% paraformaldehyd and analyzed on a BD SLR II flow cytometer. The data were analyzed using FCS Express (De Novo Software, Los Angeles, Calif., USA). […]"}, "iDCs [2]": {"test_system": "iDCs", "assay": "Peptide binding by flow cytometry", "parameters": "species or system human", "settings": "iDCs", "description": "The cells were seeded onto 24-well plate (3×10^5/well/0.5 ml) in X-vivo 15 medium and incubated overnight at 37° C. Subsequently, they were incubated with 6IAF-conjugated peptides (5 μg/ml) for 30 min at 37° C., gently scraped, washed 3 times and then analyzed by flow cytometry. Binding was also performed at 4° C."}, "iDCs [3]": {"test_system": "iDCs", "assay": "Peptide binding and internalization by fluorescence microscopy", "type": "cell-based, human", "settings": "37° C.", "description": "Then the medium was replaced with fresh medium and the cells were incubated with the peptides (5 μg/ml) for 60 min at 37° C. followed by 5 min incubation with Hoechst 33342 (Invitrogen Dynal AS, Oslo, Norway). The cells were washed twice with PBS and fixed with 4% paraformaldehyde for 15 min at 4° C. After washing, slides were covered with Dako cytomation fluorescent mounting medium and then images were taken with either epifluorescence (Leica DM RHC, Leica Microscopy As, Oslo, Norway) or confocal microscopy (Zeiss LSM 510, […])."}, "[4]": {"test_system": "CD8 T cells against NLVPMVATV epitope", "assay": "Dextramer staining of CD8 T cells after PBMC stimulation with pp65 peptides", "type": "cell-based, human", "description": "(§1) PBMC from HLA-A2/CMV+ donors were thawed, washed and then incubated with the peptides (5 μg/ml) for 60 min at 4° C. Subsequently, the cells were washed twice and then plated at 2×10^5 cells per well in 96-well tissue culture plate. Cells were cultured for 5 days and subsequently they were pulsed with [^3H] thymidine and harvested 16 h later. In some experiments, the cells were cultured for 12 days and then stained with dextramers specific for pp65 NLVPMVATV (SEQ ID NO:19) epitope. Monocyte-depleted PBMCs were also used. To analyze primary immune responses against pp65 protein, PBMCs from HLA-A2+/CMV-negative donors were used. Autologous DCs were incubated with either NW-pp65 or GA-pp65 peptide (5 μg/ml) at 4° C. for 1 h, followed by three washes to remove unbound peptides. Subsequently, the cells were incubated with CD45RO-depleted PBMC (responder cells) and co-cultured for 10 days at ratio 1/10 (DC to responder cells) in X-vivo 15 medium supplemented with 10 ng/ml human IL-7 for 10 days. After 2 rounds of stimulation (8 days each) with autologous DC loaded with peptides, the cells were stained with dextramers specific for pp65 NLVPMVATV (SEQ ID NO:19) epitope. To test spontaneous uptake of peptides by DCs, PBMCs from HLA-A2+/CMV positive donors were incubated at 37° C. with various concentrations of untargeted or targeted pp65 peptide for 90 min. Subsequently, the cells were washed to remove unbound peptides and cultured at 37° C. for 12 days and then stained with dextramers specific for pp65 NLVPMVATV (SEQ ID NO:19) epitope.\nDextramers with CMV (NLVPMVATV) (SEQ ID NO:19) and HIV (ILKEPVHGV) (SEQ ID NO:22) HLA-A2 specific antigens were obtained from Immudex (Copenhagen, Denmark). Antibodies against human CD8, CD19 and CD56 were obtained from eBioscience (San Diego, Calif., USA). Briefly, around 10^6 cells were washed and resuspended in 50 μl staining buffer SB (PBS with 0.1% human serum albumin and 0.1% NaN3) containing 1 mg/ml aggregated α-globulin and then stained with dextramer for 10 min in the dark at room temperature. Subsequently, antibodies against CD8, CD19 and CD56 were added and incubation continued for additional 20 min. Cells were washed and resuspended in SB containing 1% paraformaldehyd and analyzed on a BD SLR II flow cytometer. The data were analyzed using FCS Express (De Novo Software, Los Angeles, Calif., USA).\nMonocytes have the capacity to differentiate into macrophages or inflammatory DCs in-vitro and in-vivo (Auffray et al., (2009) Annu Rev. Immunol. 27, 669-92). Given that the NW peptide bound to blood monocytes, it was investigated whether this binding affects T-cell activation. Therefore, proliferation assays were performed with whole PBMCs. […]"}, "PBMCs": {"test_system": "PBMCs", "assay": "Autologous stimulation of PBMCs with pp65 targeted peptides, [3H] thymidine incorporation", "type": "cell-based, human", "settings": "whole PBMCs, peptides at 4° C., 5 days at 37° C.", "description": "as §1, with “Subsequently, the cells were washed to remove unbound peptides and cultured at 37° C. for 12 days and then stained with dextramers specific for pp65 NLVPMVATV (SEQ ID NO:19) epitope.” left out"}, "[5]": {"test_system": "CD8 T cells specific for the NLVPMVATV epitope", "assay": "Dextramer staining of CD8 T cells after stimulation with peptide-exposed DCs", "type": "cell-based, human", "settings": "DC-stimulated CD8 T cells, CMV positive donors, equal molar concentrations, n=3", "description": "Peptides at a concentration of 5 μg/ml were incubated with semi mDCs from HLA-A2/CMV-positive donors for 60 min at 4° C. Subsequently, they were washed to remove unbound peptides. Autologous stimulation was done in 96-well tissue culture plates in X-vivo 15 medium. Briefly, DCs were mixed with 10^5 autologous CD4 or CD8 T cells at a DC/lymphocytes ratios of 1/5 and 1/10 in a final volume of 250 μl. Cells were incubated for 5 days and then they were pulsed with [^3H] thymidine and harvested 16 h later. [^3H] thymidine incorporation was measured in a β-scintillation counter. In some experiments, the cells were cultured for 8 days and then stained with dextramers specific for pp65 NLVPMVATV (SEQ ID NO:19) epitope.\nDextramers with CMV (NLVPMVATV) (SEQ ID NO:19) and HIV (ILKEPVHGV) (SEQ ID NO:22) HLA-A2 specific antigens were obtained from Immudex (Copenhagen, Denmark). Antibodies against human CD8, CD19 and CD56 were obtained from eBioscience (San Diego, Calif., USA). […] Cells were washed and resuspended in SB containing 1% paraformaldehyd and analyzed on a BD SLR II flow cytometer. The data were analyzed using FCS Express (De Novo Software, Los Angeles, Calif., USA)."}},
  "data": [
    {"sequence": "NWYLPWLGTNDWGCFTWPPWQAGILARNLVPMVATVQGQNLKYQEFFWDANDIYRIFAEL [NW-60-mer, 48-mer CMV pp65 peptide fused to NW peptide]", "values": [
      {"measurement": "pp65-specific naïve T cells (dextramer staining)", "setting": "[1]", "result": 0.22, "unit": "%"},
      {"measurement": "binding of 6IAF-conjugated pp65 fusion peptides to DCs", "setting": "iDCs [2]", "result": "bound to iDCs"},
      {"measurement": "internalization by iDCs (confocal microscopy)", "setting": "iDCs [3]", "result": "internalized"},
      {"measurement": "CTL response (dextramer staining)", "setting": "[4]; monocyte-depleted PBMCs", "result": 5.60, "unit": "%"},
      {"measurement": "CTL response (dextramer staining)", "setting": "[4]; whole PBMCs, n=3", "result": 8.85, "unit": "%"},
      {"measurement": "T-cell proliferation ([3H]-thymidine)", "setting": "PBMCs", "result": "stimulated T-cell proliferation"},
      {"measurement": "dextramer-positive CD8 T cells specific for NLVPMVATV", "setting": "[5]", "result": 10.50, "unit": "%"}
    ]}
  ]
}
